From patent US12679878B2, “CRF2 receptor agonists and their use in therapy” (SANOFI, priority 2020, dated 2026)
Where two headings read alike, the source gives them in different places. Starred links: 1 amine or outer side, 2 acyl side, 3 side chain; linkers in the order of their positions; H or OH if unused. Non-standard residues stand in square brackets, D forms with d. Residues, ends and D or L forms follow the SMILES beside them. Groups on a side chain read outwards from the residue. No end group written: not given here. *: point of attachment. C18 diacid = O=C(O)CCCCCCCCCCCCCCCCC(=O)*; γGlu = O=C(O)[C@H](CCC(=O)[*:2])N[*:1]; AEEA = NCCOCCOCC(=O)O; Aib = CC(C)(N)C(=O)O

T1: human CRF2α receptor (Homo sapiens, UniProt Q13324)
T1 construct: expressed in transfected cells; host or cells: TeloHEAC
T1 sequence (Q13324 1-411): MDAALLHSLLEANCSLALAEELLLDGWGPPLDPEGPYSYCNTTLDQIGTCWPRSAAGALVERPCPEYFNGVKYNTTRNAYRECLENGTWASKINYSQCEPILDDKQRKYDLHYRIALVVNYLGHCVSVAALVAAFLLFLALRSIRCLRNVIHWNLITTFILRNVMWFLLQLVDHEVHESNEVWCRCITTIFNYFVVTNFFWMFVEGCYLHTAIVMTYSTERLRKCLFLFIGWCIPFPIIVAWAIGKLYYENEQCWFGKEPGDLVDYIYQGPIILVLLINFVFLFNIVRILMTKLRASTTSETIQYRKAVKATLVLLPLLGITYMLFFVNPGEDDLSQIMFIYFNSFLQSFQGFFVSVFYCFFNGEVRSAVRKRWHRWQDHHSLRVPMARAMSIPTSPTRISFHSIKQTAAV

T2: endogenous human CRF2 (NCI-H82 cells) (human, UniProt Q13324 20-411)
T2 sequence (looked up): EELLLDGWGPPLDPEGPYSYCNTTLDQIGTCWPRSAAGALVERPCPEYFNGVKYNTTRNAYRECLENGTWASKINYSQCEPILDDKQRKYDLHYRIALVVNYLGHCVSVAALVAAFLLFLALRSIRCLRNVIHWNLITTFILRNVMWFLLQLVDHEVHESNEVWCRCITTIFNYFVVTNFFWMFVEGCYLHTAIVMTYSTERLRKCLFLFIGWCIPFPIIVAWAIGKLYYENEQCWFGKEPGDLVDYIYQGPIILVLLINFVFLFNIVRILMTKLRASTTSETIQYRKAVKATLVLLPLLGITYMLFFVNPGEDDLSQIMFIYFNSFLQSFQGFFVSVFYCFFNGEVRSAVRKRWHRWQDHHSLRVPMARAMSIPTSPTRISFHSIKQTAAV

B1: peptide of SEQ ID NO: 143 (peptide)
peptide: FTLSLDVPTKIK([AEEA-AEEA-γGlu-C18 diacid])QILLKQEKQKKQRQKAKTNKQILERV-NH2
modifications: N-terminus assumed
SMILES: CC[C@H](C)[C@H](NC(=O)[C@H](CCC(N)=O)NC(=O)[C@H](CCCCN)NC(=O)[C@H](CC(N)=O)NC(=O)[C@@H](NC(=O)[C@H](CCCCN)NC(=O)[C@H](C)NC(=O)[C@H](CCCCN)NC(=O)[C@H](CCC(N)=O)NC(=O)[C@H](CCCNC(=N)N)NC(=O)[C@H](CCC(N)=O)NC(=O)[C@H](CCCCN)NC(=O)[C@H](CCCCN)NC(=O)[C@H](CCC(N)=O)NC(=O)[C@H](CCCCN)NC(=O)[C@H](CCC(=O)O)NC(=O)[C@H](CCC(N)=O)NC(=O)[C@H](CCCCN)NC(=O)[C@H](CC(C)C)NC(=O)[C@H](CC(C)C)NC(=O)[C@@H](NC(=O)[C@H](CCC(N)=O)NC(=O)[C@H](CCCCNC(=O)COCCOCCNC(=O)COCCOCCNC(=O)CC[C@H](NC(=O)CCCCCCCCCCCCCCCCC(=O)O)C(=O)O)NC(=O)[C@@H](NC(=O)[C@H](CCCCN)NC(=O)[C@@H](NC(=O)[C@@H]1CCCN1C(=O)[C@@H](NC(=O)[C@H](CC(=O)O)NC(=O)[C@H](CC(C)C)NC(=O)[C@H](CO)NC(=O)[C@H](CC(C)C)NC(=O)[C@@H](NC(=O)[C@@H](N)Cc1ccccc1)[C@@H](C)O)C(C)C)[C@@H](C)O)[C@@H](C)CC)[C@@H](C)CC)[C@@H](C)O)C(=O)N[C@@H](CC(C)C)C(=O)N[C@@H](CCC(=O)O)C(=O)N[C@@H](CCCNC(=N)N)C(=O)N[C@H](C(N)=O)C(C)C
B2: peptide of SEQ ID NO: 141 (peptide)
peptide: IVLSLD[dV]PIKLK([AEEA-AEEA-γGlu-C18 diacid])QILLKQARQK[Aib]QRAQAEKNKRILERV-NH2
modifications: N-terminus assumed
SMILES: CC[C@H](C)[C@H](N)C(=O)N[C@H](C(=O)N[C@@H](CC(C)C)C(=O)N[C@@H](CO)C(=O)N[C@@H](CC(C)C)C(=O)N[C@@H](CC(=O)O)C(=O)N[C@@H](C(=O)N1CCC[C@H]1C(=O)N[C@H](C(=O)N[C@@H](CCCCN)C(=O)N[C@@H](CC(C)C)C(=O)N[C@@H](CCCCNC(=O)COCCOCCNC(=O)COCCOCCNC(=O)CC[C@H](NC(=O)CCCCCCCCCCCCCCCCC(=O)O)C(=O)O)C(=O)N[C@@H](CCC(N)=O)C(=O)N[C@H](C(=O)N[C@@H](CC(C)C)C(=O)N[C@@H](CC(C)C)C(=O)N[C@@H](CCCCN)C(=O)N[C@@H](CCC(N)=O)C(=O)N[C@@H](C)C(=O)N[C@@H](CCCNC(=N)N)C(=O)N[C@@H](CCC(N)=O)C(=O)N[C@@H](CCCCN)C(=O)NC(C)(C)C(=O)N[C@@H](CCC(N)=O)C(=O)N[C@@H](CCCNC(=N)N)C(=O)N[C@@H](C)C(=O)N[C@@H](CCC(N)=O)C(=O)N[C@@H](C)C(=O)N[C@@H](CCC(=O)O)C(=O)N[C@@H](CCCCN)C(=O)N[C@@H](CC(N)=O)C(=O)N[C@@H](CCCCN)C(=O)N[C@@H](CCCNC(=N)N)C(=O)N[C@H](C(=O)N[C@@H](CC(C)C)C(=O)N[C@@H](CCC(=O)O)C(=O)N[C@@H](CCCNC(=N)N)C(=O)N[C@H](C(N)=O)C(C)C)[C@@H](C)CC)[C@@H](C)CC)[C@@H](C)CC)C(C)C)C(C)C

Tests used:
[1] = Physical stability, dynamic light scattering assay (Example 15); type: physicochemical; conditions: Buffer D (20 mM phosphate, pH 7.4)
Protocol: The physical stability of the compounds was also assessed using a dynamic light scattering assay.
In the present study, the physical stability of test compounds was assessed by determining the apparent hydrodynamic radius (Rh), the scattering intensity (I) and mass contribution (M) after synthesis (0 weeks) and after storage for 4 weeks at 40° C.
For each solution of test compound, the hydrodynamic radius Rh and the diffusion constant D (related via the Stokes-Einstein equation) were determined as an average over triplicates. Both parameters were determined at different compound concentrations (e.g., Rh1 and D1: 1 mg/ml and Rh5 and D5: 5 mg/ml, Rh10 and D10: 10 mg/mL) in the same buffer system. The difference of these parameters between low and high peptide concentration is a surrogate for the DLS interaction parameter kD. […] In addition, the hydrodynamic radius Rh and the corresponding Scattering Intensity (%) were determined as an average over duplicates. The target concentration was 300 μM. Therefore, solutions from solid samples were prepared in a buffer system with a concentration of 300 μM compound based on the previously determined % purity.
DLS measurements were performed on a DynaPro Plate Reader I (Wyatt Technology, Santa Barbara, CA, US) with an 837 nm laser light source at a scattering angle of 150°. The data were collected and processed with Dynamics V 7.8.1.3 or 7.8.2.18 software provided by Wyatt Technology.
Hydrodynamic radii were determined with non-negatively constrained least squares (NNLS) methods using DYNALS algorithms with regularization fit. […] Samples were tempered over 1 hour at +25° C. and visually inspected before analysis.
Samples were mixed with the aid of a pipet tip. Measurements were performed in 5 replicates. […] The plate was centrifuged for 2 minutes at 600 rcf. After removing the sealing, the samples were measured at +25° C.

[2] = Physical stability, Thioflavin T fibrillation assay (Example 14); type: physicochemical; conditions: 3 mg/ml, 37° C. shaking
How it was run: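 Fibrillation tendency was judged from lag time and rise in Thioflavin T fluorescence, measured every 20 minutes over eight replicates per sample. Peptides at 3 mg/ml final were held at 37° C under cycles of 10 s shaking (960 rpm) and 50 s rest.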

[3] = Chemical stability, purity loss by UPLC-UV after 28 days at 40° C. vs 5° C., pH 4.5 acetate buffer (Example 12); type: physicochemical; conditions: 28 days 40° C. vs 5° C.; pH 4.5, 20 mM acetate buffer; 300 μM
Protocol: The chemical stability of the compounds was assessed by storing the compounds under various conditions and then determining the loss of purity by UPLC-UV.
Prior to measuring the chemical stability of a batch of test compound, the purity of the compound was determined through UPLC/MS. For stability testing the target concentration was 300 μM pure compound. Therefore, solutions from solid samples were prepared in a pH 4.5, 20 mM acetate buffer system with a concentration of 300 μM compound based on the previously determined % purity:
At the starting point, UPLC-UV was performed by injection of 2 μl of the undiluted sample. Aliquots were then stored for 28 days at temperatures of 5 and 40° C. […] Then 2 μl samples of the undiluted supernatant were analysed with UPLC-UV. The chemical stability was calculated by the equation: [(purity after 28 days at 5° C.)−(purity after 28 days at 40° C.)]/(purity after 28 days at 5° C.)]×100%. The purity was calculated as: [(peak area compound)/(total peak area)]×100%.

human CRF2α receptor = target: T1, human CRF2α receptor; test: cAMP agonism at human CRF2 α receptor in TeloHEAC cells (Example 7); type: cell-based; conditions: cAMP HTRF, TeloHEAC cells stably expressing human CRF2 α
How it was run: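 HTRF ratio 665/620 nm, read 1 h after lysis reagents, reports cAMP. Cells: thawed stocks, 2000/well, 30 min RT with compound in HBSS, 20 mM HEPES, 0 or 0.1% HSA, 2 mM IBMX. Activity normalised to UCN2 1000 nM = 100%; EC50 from half-maximal activation.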

[4] = Solubility in buffer systems by UPLC-UV (Example 13); type: physicochemical; conditions: pH 4.5, Solubility in Buffer B [mg/ml]
How it was run: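 Quantitation used UV peak area from UPLC of the 1:10-diluted supernatant, set against a reference-compound standard curve with extinction coefficients adjusted for amino acid sequence.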

rat CRF2R α receptor [5] = test: cAMP agonism at rat CRF2R α receptor in A7R5 rat aortic smooth muscle cells (Example 8); type: cell-based; conditions: cAMP HTRF, A7R5 rat aortic smooth muscle cell line, 0% HSA
How it was run: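 Potency (EC50) is the concentration reaching half-maximal activation, with responses scaled so that 1000 nM urocortin 2 equals 100%. Intracellular cAMP was quantified by homogeneous time-resolved fluorescence at 665/620 nm, 1 h after lysis-buffer reagents. Compound stimulation lasted 30 min at room temperature on 2000 IBMX-treated (2 mM) cells per well in HEPES-buffered HBSS.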

[6] = target: T2, endogenous human CRF2 (NCI-H82 cells); test: cell-based or functional assay
rat CRF2R α receptor [7] = target: rat CRF2R α receptor (rat, UniProt P47866 20-411); test: cell-based or functional assay
[8] = Buffer A: 100 mM acetate buffer, pH 4.5
[9] = Buffer B: 100 mM acetate buffer, pH 4.5, 2.7 mg/ml m-cresol

| Molecule | Apparent Rh [nm] 0 weeks ([1]; 0 weeks) | Scattering Intensity (I) [%] 0 weeks ([1]; 0 weeks) | Apparent Rh [nm] 4 weeks ([1]; 4 weeks at 40° C.) | Scattering Intensity (I) [%] 4 weeks ([1]; 4 weeks at 40° C.) | Increase in FI (fluorescence intensity) [2, 8] | Lag time [2, 8] | Increase in FI (fluorescence intensity) [2, 9] | Lag time [2, 9] | Relative purity loss [%] [3] | EC50 (human CRF2α receptor; 0% HSA, read-out: EC50 [nM], 0% HSA) | EC50 (human CRF2α receptor; 0.1% HSA, read-out: EC50 [nM], 0.1% HSA) | solubility at 1 h [4] | EC50 (rat CRF2R α receptor [5]) | EC50 [nM] (cAMP, NCI-H82 cells) [6] | EC50 [nM], 0% HSA (cAMP, A7R5 cells) (rat CRF2R α receptor [7]) |
| --- | --- | --- | --- | --- | --- | --- | --- | --- | --- | --- | --- | --- | --- | --- | --- |
| CC[C@H](C)[C@H](N)C(=O)N[C@H](C(=O)N[C@@H](CC(C)C)C(=O)N[C@@H](CO)C(=O)N[C@@H](CC(C)C)C(=O)N[C@@H](CC(=O)O)C(=O)N[C@@H](C(=O)N1CCC[C@H]1C(=O)N[C@H](C(=O)N[C@@H](CCCCN)C(=O)N[C@@H](CC(C)C)C(=O)N[C@@H](CCCCNC(=O)COCCOCCNC(=O)COCCOCCNC(=O)CC[C@H](NC(=O)CCCCCCCCCCCCCCCCC(=O)O)C(=O)O)C(=O)N[C@@H](CCC(N)=O)C(=O)N[C@H](C(=O)N[C@@H](CC(C)C)C(=O)N[C@@H](CC(C)C)C(=O)N[C@@H](CCCCN)C(=O)N[C@@H](CCC(N)=O)C(=O)N[C@@H](C)C(=O)N[C@@H](CCCNC(=N)N)C(=O)N[C@@H](CCC(N)=O)C(=O)N[C@@H](CCCCN)C(=O)NC(C)(C)C(=O)N[C@@H](CCC(N)=O)C(=O)N[C@@H](CCCNC(=N)N)C(=O)N[C@@H](C)C(=O)N[C@@H](CCC(N)=O)C(=O)N[C@@H](C)C(=O)N[C@@H](CCC(=O)O)C(=O)N[C@@H](CCCCN)C(=O)N[C@@H](CC(N)=O)C(=O)N[C@@H](CCCCN)C(=O)N[C@@H](CCCNC(=N)N)C(=O)N[C@H](C(=O)N[C@@H](CC(C)C)C(=O)N[C@@H](CCC(=O)O)C(=O)N[C@@H](CCCNC(=N)N)C(=O)N[C@H](C(N)=O)C(C)C)[C@@H](C)CC)[C@@H](C)CC)[C@@H](C)CC)C(C)C)C(C)C [compound 141] (H-IVLSLD[dV]PIKLK([AEEA-AEEA-γGlu-C18 diacid])QILLKQARQK[Aib]QRAQAEKNKRILERV-NH2) | 2.19 ± 0.18 nm | 100 ± 1% | 2.34 ± 0.22 nm | 98 ± 2% | No | >45 h | No | >45 h | 2.90% | 0.03 nM | 0.97 nM | > 8300 µg/mL | 0.05 nM |  |  |
| B1 |  |  |  |  |  |  |  |  |  |  |  |  |  | 93 nM |  |
| B2 |  |  |  |  |  |  |  |  |  |  |  |  |  | 12 nM | 0.05 nM |
